In patent publication US20150344485A1, “BICYCLIC PYRIMIDONE COMPOUNDS AS INHIBITORS OF LP-PLA2” (GLAXOSMITHKLINE INTELLECTUAL PROPERTY DEVELOPMENT LIMITED, priority 2013, published 2015):

biological target: T1, Lp-PLA2 in human plasma (Homo sapiens, UniProt Q13093); experiment: Lp-PLA2 human plasma assay (Thio-PAF assay); type: biochemical; conditions: pooled human plasma; read-out: pIC50 values in the thio-PAF assay (converted)
T1 construct: from tissue; host or cells: pooled human plasma
T1 sequence (Q13093 22-441): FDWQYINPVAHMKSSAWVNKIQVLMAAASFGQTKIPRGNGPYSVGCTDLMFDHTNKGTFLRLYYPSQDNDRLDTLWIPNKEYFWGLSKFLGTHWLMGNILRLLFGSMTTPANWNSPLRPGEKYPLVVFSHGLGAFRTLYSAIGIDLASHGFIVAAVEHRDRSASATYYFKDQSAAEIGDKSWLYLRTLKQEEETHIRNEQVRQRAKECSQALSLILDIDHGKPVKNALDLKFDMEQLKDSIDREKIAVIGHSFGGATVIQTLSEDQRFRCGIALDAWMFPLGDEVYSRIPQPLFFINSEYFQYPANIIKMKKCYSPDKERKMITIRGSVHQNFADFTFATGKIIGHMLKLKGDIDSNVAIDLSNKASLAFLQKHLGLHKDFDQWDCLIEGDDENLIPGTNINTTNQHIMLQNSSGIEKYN
From the text: The human plasma assay utilizes a thioester analog of PAF (phosphatidylcholine), where hydrolysis yields to the formation of a phospholipid containing a free thiol group. The amount of thiol is quantitated continuously by reacting with CPM (7-diethylamino-3-(4′-maleimidylphenyl)-4-methylcoumarin), a maleimide which increases in fluoresence after Michael addition of thiols. This assay may detect the activity of Lp-PLA2 in human plasma, as determined by specific inhibition by Lp-PLA2 inhibitors.
The thio-PAF assay was run as a quenched 15 μL assay. Compounds source plate was prepared by making 1:3 (by volume) serial dilution of the compounds into pure DMSO on 384-well microplate. 0.01 μL of compounds on compound source plate were transferred to 384 well Greiner 784076 (black) low-volume plates by ECHO liquid dispenser. 8 μL pooled human plasma, which was previously aliquoted and frozen, was added. Plates were centrifuged for 10 sec at 500 rpm. After 30 minutes preincubation, 2 μL of substrate solution comprising 2.5 mM 2-thio-PAF [from ethanol stock], 32 μM CPM [from a DMSO stock] and 3.2 mM NEM (N-ethylmaleimide) [made fresh daily in DMSO] in assay buffer of 50 mM HEPES, pH 7.4, 150 mM NaCl, 1 mM CHAPS was added to 384 well Greiner 784076 (black) low-volume plates by BRAVO liquid handling station. After 2 mins, reaction was quenched with 5 μL of 5% aqueous trifluoroacetic acid (TFA). Plates were covered to protect from light and incubated for 40 min at room temperature. Plates were read at ex: 380/em: 485 using-Envision microplate reader. pIC50 data, curve and QC analysis was conducted by using XLFit module in Excel.

`[2H]C([2H])(Oc1cc2n(c(=O)n1)CC[C@@H](C)N2C)c1cc(F)cc(F)c1` [E50, (R)-8-((3,5-difluorophenyl)dideuteromethoxy)-1,2-dimethyl-3,4-dihydro-1H-pyrimido[1,6-a]pyrimidin-6(2H)-one] and `[2H]C([2H])(Oc1cc2n(c(=O)n1)CC[C@H](C)N2C)c1cc(F)cc(F)c1` [E49, (S)-8-((3,5-difluorophenyl)dideuteromethoxy)-1,2-dimethyl-3,4-dihydro-1H-pyrimido[1,6-a]pyrimidin-6(2H)-one] cannot be ordered by IC50: ≤ 100 nM for the first, ≤ 100 nM for the second.

`C[C@@H]1CCn2c(cc(OCc3ccc(F)cc3)nc2=O)N1C` [E20, (R)-8-((4-fluorobenzyl)oxy)-1,2-dimethyl-3,4-dihydro-1H-pyrimido[1,6-a]pyrimidin-6(2H)-one] and `CC1CCn2c(cc(OCc3ccc(F)cc3)nc2=O)N1C` (stereo not drawn) [E9, 8-((4-fluorobenzyl)oxy)-1,2-dimethyl-3,4-dihydro-1H-pyrimido[1,6-a]pyrimidin-6(2H)-one] cannot be ordered by IC50: ≤ 100 nM for the first, ≤ 100 nM for the second.

`C[C@H]1CCn2c(cc(OCc3ccc(F)c(F)c3)nc2=O)N1` [E40, (S)-8-((3,4-difluorobenzyl)oxy)-2-methyl-3,4-dihydro-1H-pyrimido[1,6-a]pyrimidin-6(2H)-one] and `C[C@H]1CCn2c(cc(OCc3cc(F)c(F)c(F)c3)nc2=O)N1` [E45, (S)-2-methyl-8-((3,4,5-trifluorobenzyl)oxy)-3,4-dihydro-1H-pyrimido[1,6-a]pyrimidin-6(2H)-one] cannot be ordered by IC50: ≤ 100 nM for the first, ≤ 10 nM for the second.

`C[C@@H]1CCn2c(cc(OCc3cc(F)c(Oc4ccc(Cl)c(F)c4)c(F)c3)nc2=O)N1C` [E63, (R)-8-((4-(4-chloro-3-fluorophenoxy)-3,5-difluorobenzyl)oxy)-1,2-dimethyl-3,4-dihydro-1H-pyrimido[1,6-a]pyrimidin-6(2H)-one] and `C[C@H]1CCn2c(cc(OCc3cc(F)c(Oc4ccc(Cl)c(F)c4)c(F)c3)nc2=O)N1C` [E58, (S)-8-((4-(4-chloro-3-fluorophenoxy)-3,5-difluorobenzyl)oxy)-1,2-dimethyl-3,4-dihydro-1H-pyrimido[1,6-a]pyrimidin-6(2H)-one] cannot be ordered by IC50: ≤ 10 nM for the first, ≤ 10 nM for the second.

`CC1CCn2c(cc(OCc3cccc(F)c3)nc2=O)N1C` (stereo not drawn) [E12, 8-((3-fluorobenzyl)oxy)-1,2-dimethyl-3,4-dihydro-1H-pyrimido[1,6-a]pyrimidin-6(2H)-one] and `C[C@@H]1CCn2c(cc(OCc3cccc(F)c3)nc2=O)N1C` [E130, (R)-8-((3-fluorobenzyl)oxy)-1,2-dimethyl-3,4-dihydro-1H-pyrimido[1,6-a]pyrimidin-6(2H)-one] cannot be ordered by IC50: ≤ 100 nM for the first, ≤ 100 nM for the second.

`C[C@H]1CCn2c(cc(OCc3ccc(Oc4ccc(C(F)(F)F)cc4)c(C#N)c3)nc2=O)N1C` [E61, (S)-5-(((1,2-dimethyl-6-oxo-2,3,4,6-tetrahydro-1H-pyrimido[1,6-a]pyrimidin-8-yl)oxy)methyl)-2-(4-(trifluoromethyl)phenoxy)benzonitrile] and `C[C@H]1CCn2c(cc(OCc3ccc(Oc4ccc(Cl)c(F)c4)c(C#N)c3)nc2=O)N1C` [E66, (S)-2-(4-chloro-3-fluorophenoxy)-5-(((1,2-dimethyl-6-oxo-2,3,4,6-tetrahydro-1H-pyrimido[1,6-a]pyrimidin-8-yl)oxy)methyl)benzonitrile] cannot be ordered by IC50: ≤ 10 nM for the first, ≤ 10 nM for the second.

`CN1c2cc(OCc3cccc(F)c3)nc(=O)n2CCC1(C)C` [E134, 8-((3-fluorobenzyl)oxy)-1,2,2-trimethyl-3,4-dihydro-1H-pyrimido[1,6-a]pyrimidin-6(2H)-one] and `CN1c2cc(OCc3cc(F)cc(F)c3)nc(=O)n2CCC1(C)C` [E74, 8-((3,5-difluorobenzyl)oxy)-1,2,2-trimethyl-3,4-dihydro-1H-pyrimido[1,6-a]pyrimidin-6(2H)-one] cannot be ordered by IC50: ≤ 100 nM for the first, ≤ 100 nM for the second.

`C[C@@H]1CCn2c(cc(OCc3ccc(F)cc3)nc2=O)N1` [E27, (R)-8-((4-fluorobenzyl)oxy)-2-methyl-3,4-dihydro-1H-pyrimido[1,6-a]pyrimidin-6(2H)-one] and `CC1CCn2c(cc(OCc3cccc(C#N)c3)nc2=O)N1C` (stereo not drawn) [E10, 3-(((1,2-dimethyl-6-oxo-2,3,4,6-tetrahydro-1H-pyrimido[1,6-a]pyrimidin-8-yl)oxy)methyl)benzonitrile] cannot be ordered by IC50: ≤ 100 nM for the first, ≤ 100 nM for the second.

`C[C@H]1CCn2c(cc(OCc3cc(F)c(F)cc3F)nc2=O)N1C` [E42, (S)-1,2-dimethyl-8-((2,4,5-trifluorobenzyl)oxy)-3,4-dihydro-1H-pyrimido[1,6-a]pyrimidin-6(2H)-one] and `CCN1c2cc(OCc3cc(F)c(F)cc3F)nc(=O)n2CC[C@@H]1C` [E52, (S)-1-ethyl-2-methyl-8-((2,4,5-trifluorobenzyl)oxy)-3,4-dihydro-1H-pyrimido[1,6-a]pyrimidin-6(2H)-one] cannot be ordered by IC50: ≤ 100 nM for the first, ≤ 100 nM for the second.

`[2H]C([2H])(Oc1cc2n(c(=O)n1)CCC(C)(C)N2C)c1cc(F)c(F)c(F)c1` [E55, 8-(dideutero(3,4,5-trifluorophenyl)methoxy)-1,2,2-trimethyl-3,4-dihydro-1H-pyrimido[1,6-a]pyrimidin-6(2H)-one] and `[2H]C([2H])(Oc1cc2n(c(=O)n1)CC[C@H](C)N2C)c1cc(F)c(F)c(F)c1` [E36, (S)-8-(dideutero(3,4,5-trifluorophenyl)methoxy)-1,2-dimethyl-3,4-dihydro-1H-pyrimido[1,6-a]pyrimidin-6(2H)-one] cannot be ordered by IC50: ≤ 100 nM for the first, ≤ 100 nM for the second.

`[2H]C([2H])(Oc1cc2n(c(=O)n1)CC[C@@H](C)N2C)c1cccc(F)c1F` [E19, (R)-8-((2,3-difluorophenyl)dideuteromethoxy)-1,2-dimethyl-3,4-dihydro-1H-pyrimido[1,6-a]pyrimidin-6(2H)-one] and `C[C@@H]1CCn2c(cc(OCc3cccc(F)c3F)nc2=O)N1C` [E18, (R)-8-((2,3-difluorobenzyl)oxy)-1,2-dimethyl-3,4-dihydro-1H-pyrimido[1,6-a]pyrimidin-6(2H)-one] cannot be ordered by IC50: ≤ 100 nM for the first, ≤ 100 nM for the second.

`CCN1c2cc(OCc3cccc(F)c3F)nc(=O)n2CC[C@@H]1C` [E53, (S)-8-((2,3-difluorobenzyl)oxy)-1-ethyl-2-methyl-3,4-dihydro-1H-pyrimido[1,6-a]pyrimidin-6(2H)-one] and `CC(C)N1c2cc(OCc3cccc(F)c3F)nc(=O)n2CC[C@@H]1C` [E139, (S)-8-((2,3-difluorobenzyl)oxy)-1-isopropyl-2-methyl-3,4-dihydro-1H-pyrimido[1,6-a]pyrimidin-6(2H)-one] cannot be ordered by IC50: ≤ 100 nM for the first, ≤ 100 nM for the second.

`C[C@@H]1CCn2c(cc(OCc3cc(F)c(F)c(F)c3)nc2=O)N1C` [E16, (R)-1,2-dimethyl-8-((3,4,5-trifluorobenzyl)oxy)-3,4-dihydro-1H-pyrimido[1,6-a]pyrimidin-6(2H)-one] and `C[C@H]1CCn2c(cc(OCc3cc(F)c(Oc4cccc(Cl)c4)c(F)c3)nc2=O)N1C` [E59, (S)-8-((4-(3-chlorophenoxy)-3,5-difluorobenzyl)oxy)-1,2-dimethyl-3,4-dihydro-1H-pyrimido[1,6-a]pyrimidin-6(2H)-one] cannot be ordered by IC50: ≤ 100 nM for the first, ≤ 100 nM for the second.

`C[C@H]1CCn2c(cc(OCc3cccc(C#N)c3)nc2=O)N1C` [E128, (S)-3-(((1,2-dimethyl-6-oxo-2,3,4,6-tetrahydro-1H-pyrimido[1,6-a]pyrimidin-8-yl)oxy)methyl)benzonitrile] and `C[C@@H]1CCn2c(cc(OCc3cccc(C#N)c3)nc2=O)N1C` [E127, (R)-3-(((1,2-dimethyl-6-oxo-2,3,4,6-tetrahydro-1H-pyrimido[1,6-a]pyrimidin-8-yl)oxy)methyl)benzonitrile] cannot be ordered by IC50: ≤ 100 nM for the first, ≤ 100 nM for the second.

`CN1c2cc(OCc3cccc(F)c3F)nc(=O)n2CCC1(C)C` [E72, 8-((2,3-difluorobenzyl)oxy)-1,2,2-trimethyl-3,4-dihydro-1H-pyrimido[1,6-a]pyrimidin-6(2H)-one] and `C[C@@H]1CCn2c(cc(OCc3cc(F)c(Oc4cccc(Cl)c4)c(F)c3)nc2=O)N1C` [E64, (R)-8-((4-(3-chlorophenoxy)-3,5-difluorobenzyl)oxy)-1,2-dimethyl-3,4-dihydro-1H-pyrimido[1,6-a]pyrimidin-6(2H)-one] cannot be ordered by IC50: ≤ 100 nM for the first, ≤ 10 nM for the second.
